Experiments:
Assay in all cases: relative viability (nuclei count vs DMSO), 5 days (fraction); higher = more cells survive
[1] = compound: CC1(C)CNc2cc(NC(=O)c3cccnc3NCc3ccncc3)ccc21 [Motesanib] + CC1(C)CCC(c2ccc(Cl)cc2)=C(CN2CCN(c3ccc(C(=O)NS(=O)(=O)c4ccc(N[C@H](CCN5CCOCC5)CSc5ccccc5)c(S(=O)(=O)C(F)(F)F)c4)cc3)CC2)C1 [Navitoclax] (partner 0.5 µM)
Method in brief: (§1)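 Values are medians from duplicate plates. Each reflects relative viability, defined as the nuclei count of treated wells over that of vehicle wells. Lung cancer cell lines in 1536-well plates were pin-tool dosed one day after seeding with one drug alone or with a fixed anchor-drug dose plus five library-drug doses (not always all listed) in √10 steps, then fixed, stained and imaged at 4× after 5 days.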

[2] = compound: C[C@@]1(C(=O)Nc2ccc(F)nc2)CCCN1c1nc(Nc2cc(C3CC3)n[nH]2)c2cccn2n1 + Cc1nc(NC(=O)N2CCC[C@H]2C(N)=O)sc1-c1ccnc(C(C)(C)C(F)(F)F)c1 [Alpelisib] (partner 2 µM)
Method in brief: as §1

[3] = compound: CC1(C)CNc2cc(NC(=O)c3cccnc3NCc3ccncc3)ccc21 [Motesanib] + CC(C)C[C@H](NC(=O)[C@H](Cc1ccccc1)NC(=O)c1cnccn1)B(O)O [Bortezomib] (partner 0.002 µM)
Method in brief: as §1

[4] = compound: CC1(C)CNc2cc(NC(=O)c3cccnc3NCc3ccncc3)ccc21 [Motesanib] + C[C@]1(O)C[C@@H](c2nc(-c3ccc4ccc(-c5ccccc5)nc4c3)c3c(N)nccn32)C1 [Linsitinib] (partner 1 µM)
Method in brief: as §1

**Q.** UMC-11 was tested. Which relative viability ([1]; first compound 0.01 µM) did it give?
**A.** The relative viability was 0.341.

**Q.** What about the relative viability ([1]; first compound 0.03162 µM) of the same cell line?
**A.** Its relative viability is 0.312.

**Q.** And the relative viability ([1]; first compound 0.1 µM)?
**A.** Its relative viability is 0.31.

**Q.** What about the relative viability ([1]; first compound 0.3162 µM) of the same cell line?
**A.** Its relative viability is 0.302.

**Q.** And the relative viability ([1]; first compound 1 µM)?
**A.** Its relative viability is 0.318.

**Q.** And the relative viability ([2]; first compound 0.04 µM)?
**A.** Its relative viability is 0.955.

**Q.** What about the relative viability ([2]; first compound 0.1265 µM) of the same cell line?
**A.** The relative viability was 1.1.

**Q.** What about the relative viability ([2]; first compound 0.4 µM) of the same cell line?
**A.** Its relative viability is 1.01.

**Q.** And the relative viability ([2]; first compound 1.265 µM)?
**A.** The relative viability was 1.1.

**Q.** And the relative viability ([3]; first compound 0.01 µM)?
**A.** The relative viability was 0.648.

**Q.** What about the relative viability ([3]; first compound 0.03162 µM) of the same cell line?
**A.** The relative viability was 0.767.

**Q.** What about the relative viability ([3]; first compound 0.1 µM) of the same cell line?
**A.** Its relative viability is 0.64.

**Q.** What about the relative viability ([3]; first compound 0.3162 µM) of the same cell line?
**A.** Its relative viability is 0.683.

**Q.** And the relative viability ([3]; first compound 1 µM)?
**A.** The relative viability was 0.951.

**Q.** And the relative viability ([4]; first compound 0.01 µM)?
**A.** Its relative viability is 0.984.

**Q.** And the relative viability ([4]; first compound 0.03162 µM)?
**A.** The relative viability was 0.985.

**Q.** And the relative viability ([4]; first compound 0.1 µM)?
**A.** Its relative viability is 1.04.

**Q.** What about the relative viability ([4]; first compound 0.3162 µM) of the same cell line?
**A.** Its relative viability is 1.

**Q.** And the relative viability ([4]; first compound 1 µM)?
**A.** The relative viability was 1.13.
